US20220339257A1, “METHODS TO INCREASE THE SENSITIVITY AND REVERSING THE RESISTANCE TO DRUGS” (Biomarker Strategies, LLC, priority 2019, published 2022)

Assays:
Type in all cases: cell-based
[1] = test system: clinical sample (WT EGFR tumor, patient who smoked); assay: Immunocytochemistry biomarker staining of a clinical sample; details: erlotinib+EM2 combination
Method: (§1) Cells at the seeding density of 10,000 cells per well were plated in 8 chamber slides in complete RPMI culture medium for overnight. After 24h cells were treated with RPMI media without the serum along with selected dose of erlotinib+EM2 and kept for additional 72 hours in incubation condition set at 37° C. in a humidified atmosphere of 95% air and 5% CO2. The chamber slides were rinsed with PBS before performing ICC staining. An Ambay kit (Catalog #10011A) purchased from Ambay Immune Sensors and Controls, LLC (AISC) (MD, USA) was used to perform ICC staining as per the kit instructions and using poly-HRP from Biogenix (CA, USA) was used to enable signal amplification and detection of specific bound antibody targets. A respective isotype antibody control was be kept for each biomarker. Counterstaining was performed before mounting and analysis.

EGFR WT sample (H1581) = assay: Immunocytochemistry biomarker staining; details: erlotinib+EM2 combination; WT EGFR smoker samples; 72 hours
Method: as §1

RPMI-1975 = assay: HoPI live cell staining; details: 24 hours
Excerpt: (§2) A double stain of Hoechst 33342 and propidium iodide allows for the determination of cell viability with high specificity and low background noise, as compared to trypan blue staining. Hoechst 33342 is a cell permeable blue fluorescent nuclear stain which will stain all cell types. Propidium iodide is a cell impermeable red fluorescent nuclear stain that will only bind to the nuclei of cells with compromised membranes (dead cells). The staining can be performed rapidly on live cell suspensions within 15 minutes. 25 uL of 4× Hoechst 33342 Solution (40 ug/mL) and 25 uL of 4×Propidium Iodide Solution are added to 50 uL of cell suspension. The suspension was gently mixed 10 times and 50 uL was immediately transferred to a microfluidic cell counting chip. A 365 nm LED was used to excite both Hoechst 33342 and propidium iodide. Images of the cells were captured using a 10× objective lens on an Olympus microscope using a Canon EOS 6D camera using an ISO of 800 and an exposure of 2 seconds; both JPEG and RAW images were saved for analysis. The blue channel was used to measure the total number of cells and the red channel was used to measure the number of dead cells. Cell counting was performed automatically by the Image Pro software (Media Cybernetics, Inc).
MTA and EM effects on apoptosis were measured by Hoechst-Propidium Iodide staining (HoPI). For the assay, cells were seeded in 6-well plates at 400K cells per well, in 2 mL of 10% FBS-containing media and incubated for 24 hours. At 24 hours, a 1 nM to […] range of MTA and/or 1 ng/mL to 1 mg/mL range of EM doses was added and incubated for 24 hours. After 24 hours incubation respective cells' media was collected, added the 1× HBSS wash from the plate in the respective tube. Adherent cells were detached by treating with Accutase for 6 minutes and collected in respective tubes. All samples were centrifuged for 5 minutes at 1200 RPM. […] The area, mean intensity, standard deviation of the mean intensity, minimum intensity, maximum intensity and perimeter were measured for each cellular region in the red channel and also in the blue channel. […]

[2] = test system: clinical sample; HS2170 and Calu-6 cells; assay: HoPI assay (Hoechst 33342 and propidium iodide); details: Osimertinib in combination with EM2
Excerpt: as §2

tumor necrosis factor-alpha [EM2]
cell apoptosis (nuclear staining of Bcl2, nuclear vacuolization) [1]: promoted cell apoptosis
cell apoptosis (changes in nuclear staining of Bcl2, ICC) (EGFR WT sample (H1581)): promoted cell apoptosis
reduction in live cells (HoPI) (RPMI-1975; GSK458 and TNFa in combination): 68%
reduction in live cells (HoPI) (RPMI-1975; single agent): 8%
cell death (HoPI assay) [2]: increase in cell death
